23 compounds from patent publication US9365583B2, “Substituted pyrazoles and uses thereof” (Genentech, Inc., priority 2013, dated 2016) can be followed below.

The test deals with T1, N-terminally GST-tagged DLK (catalytic domain amino acid 1-520) (Homo sapiens, UniProt Q12852).
T1 construct: N-terminally GST-tagged DLK (catalytic domain amino acid 1-520); purchased Carna Bioscience
T1 sequence (Q12852 1-520): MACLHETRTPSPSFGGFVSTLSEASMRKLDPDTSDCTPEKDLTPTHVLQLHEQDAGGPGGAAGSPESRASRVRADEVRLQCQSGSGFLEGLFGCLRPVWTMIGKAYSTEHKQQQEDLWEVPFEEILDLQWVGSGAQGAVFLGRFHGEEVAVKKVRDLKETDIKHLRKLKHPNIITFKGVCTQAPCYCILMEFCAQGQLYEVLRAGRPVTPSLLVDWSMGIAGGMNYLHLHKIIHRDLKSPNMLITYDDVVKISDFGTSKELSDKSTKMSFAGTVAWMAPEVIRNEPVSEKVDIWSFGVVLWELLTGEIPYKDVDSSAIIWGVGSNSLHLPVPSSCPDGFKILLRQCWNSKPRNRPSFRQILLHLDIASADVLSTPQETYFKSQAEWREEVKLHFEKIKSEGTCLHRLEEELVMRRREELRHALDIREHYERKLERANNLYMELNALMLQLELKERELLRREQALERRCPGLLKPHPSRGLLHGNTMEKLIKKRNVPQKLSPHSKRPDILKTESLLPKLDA
The experiment in a line: DLK TR-FRET inhibition assay. It counts as biochemical. The settings on record: 5 nM GST-DLK, 40 nM HIS-MKK4 K131M substrate, 30 μM ATP, 60 minutes at ambient temperature. An outline of the steps:
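Phosphorylated MKK4 was quantified by TR-FRET (Eu-labelled anti-phospho-MKK4, D2 anti-HIS; 3 h, 665 and 615 nm emission) after EDTA quench. Reactions held 5 nM GST-tagged DLK catalytic domain (1-520), 40 nM HIS-MKK4 K131M substrate, 30 μM ATP and compound (3-fold series from 20 uM), 60 min, room temperature, pH 7.5.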
`CO[C@@H]1CCN([C@H]2C[C@@H]3[C@H](C2)[C@H]3c2cc(-c3cnc(N)c(OC(F)(F)F)c3)nn2C(C)C)C1` [compound 22, 5-(1-isopropyl-5-((1R,3r,5S,6R)-3-((R)-3-methoxypyrrolidin-1-yl)bicyclo[3.1.0]hexan-6-yl)-1H-pyrazol-3-yl)-3-(trifluoro-methoxy)pyridin-2-amine]: the Ki is 1.57 nM.
On to `CC(C)n1nc(-c2cnc(N)c(OC(F)F)c2)cc1[C@H]1[C@@H]2C[C@@H](N3CCN(C)CC3)C[C@@H]21` [compound 199, 3-(difluoromethoxy)-5-(1-isopropyl-5-((1R,3s,5S,6r)-3-(4-methyl-piperazin-1-yl)bicyclo[3.1.0]hexan-6-yl)-1H-pyrazol-3-yl) pyridin-2-amine], for which the Ki worked out at 1.8 nM.
To `CC(C)n1nc(-c2cnc(N)c(C(F)(F)F)c2)cc1[C@H]1[C@@H]2C[C@@H](NCC(F)F)C[C@@H]21` [compound 254, 5-(5-((1R,3s,5S,6r)-3-((2,2-difluoroethyl)amino)bicyclo[3.1.0]hexan-6-yl)-1-isopropyl-1H-pyrazol-3-yl)-3-(trifluoromethyl) pyridin-2-amine] belongs 2.4 nM; to `CC(C)n1nc(-c2cnc(N)c(OC(F)F)c2)cc1[C@H]1[C@@H]2C[C@@H](NCC(F)F)C[C@@H]21` [compound 255, 5-(5-((1R,3s,5S,6r)-3-((2,2-difluoroethyl)amino)bicyclo[3.1.0]hexan-6-yl)-1-isopropyl-1H-pyrazol-3-yl)-3-(difluoromethoxy) pyridin-2-amine], 1.5 nM; to `CO[C@@H]1CCN([C@H]2C[C@@H]3[C@H](C2)[C@H]3c2cc(-c3cnc(N)c(OC(F)F)c3)nn2C(C)C)C1` [compound 186, 3-(difluoromethoxy)-5-(1-isopropyl-5-((1R,3r,5S,6R)-3-((R)-3-methoxypyrrolidin-1-yl)bicyclo [3.1.0]hexan-6-yl)-1H-pyrazol-3-yl)pyridin-2-amine], 1.6 nM.
For `CC(C)n1nc(-c2cnc(N)c(C(F)(F)F)c2)cc1[C@H]1[C@@H]2C[C@@H](N3CCOC[C@@H]3C)C[C@@H]21` [compound 103, 5-(1-isopropyl-5-((1R,3s,5S,6S)-3-((S)-3-methylmorpholino)bicyclo[3.1.0]hexan-6-yl)-1H-pyrazol-3-yl)-3-(trifluoromethyl) pyridin-2-amine], the Ki came to 1.28 nM.
Take `CC(C)n1nc(-c2cnc(N)c(C(F)(F)F)c2)cc1[C@@H]1[C@H]2CC[C@@H](N3CCOCC3)[C@H]21` (single isomer, unassigned) [compound 138, 5-(1-isopropyl-5-(2-morpholinobicyclo[3.1.0]hexan-6-yl)-1H-pyrazol-3-yl)-3-(trifluoromethyl) pyridin-2-amine]: the Ki came to 12.9 nM.
For `CC(C)n1nc(-c2cnc(N)c(OC(F)F)c2)cc1[C@H]1[C@@H]2C[C@H](N3CCN4CCCC4C3)C[C@@H]21` (stereo partly drawn) [compound 260, 3-(difluoromethoxy)-5-(5-((1R,3r,5S,6r)-3-(hexahydropyrrolo [1,2-a]pyrazin-2(1H)-yl)bicyclo [3.1.0]hexan-6-yl)-1-isopropyl-1H-pyrazol-3-yl)pyridin-2-amine], the affinity, expressed as Ki, was 0.4 nM.
The same measure for `CC(C)n1nc(-c2cnc(N)c(C(F)(F)F)c2)cc1[C@H]1[C@@H]2C[C@@H](N3CCN(CC(F)F)CC3)C[C@@H]21` [compound 266]: 1.1 nM.
On to `CC(C)n1nc(-c2cnc(N)c(OC(F)F)c2)cc1[C@H]1[C@@H]2C[C@H](N3C4COCC3C4)C[C@@H]21` [compound 153, 5-(5-((1R,3r,5S,6r)-3-(3-oxa-6-azabicyclo[3.1.1]heptan-6-yl)bicyclo[3.1.0]hexan-6-yl)-1-isopropyl-1H-pyrazol-3-yl)-3-(difluoro-methoxy)pyridin-2-amine], for which the Ki is 0.9 nM.
On to `CC(C)n1nc(-c2cnc(N)c(OC(F)(F)F)c2)cc1[C@H]1[C@@H]2C[C@@H](NCC(F)F)C[C@@H]21` [compound 288, 5-(5-((1R,3s,5S,6r)-3-((2,2-udifloroethyl)amino)bicyclo[3.1.0]hexan-6-yl)-1-isopropyl-1H-pyrazol-3-yl)-3-(tritluoromethoxy) pyridin-2-amine], for which the Ki stood at 6.3 nM.
To `CO[C@H]1CCN([C@H]2C[C@@H]3[C@H](C2)[C@H]3c2cc(-c3cnc(N)c(OC(F)(F)F)c3)nn2C(C)C)C1` [compound 23, 5-(1-isopropyl-5-((1R,3r,5S,6S)-3-((S)-3-methoxypyrrolidin-1-yl)bicyclo[3.1.0]hexan-6-yl)-1H-pyrazol-3-yl)-3-(trifluoro-methoxy)pyridin-2-amine] belongs 0.98 nM; to `CC(C)n1nc(-c2cnc(N)c(OC(F)(F)F)c2)cc1[C@H]1[C@@H]2C[C@H](N3CC4(CCCO4)C3)C[C@@H]21` [compound 226, 5-(5-((1R,3r,5S,6r)-3-(5-oxa-2-azaspiro[3.4]octan-2-yl)bicyclo [3.1.0]hexan-6-yl)-1-isopropyl-1H-pyrazol-3-yl)-3-(trifluoro-methoxy)pyridin-2-amine], 3.2 nM.
The same measure for `CC(C)n1nc(-c2cnc(N)c(C(F)(F)F)c2)cc1[C@H]1[C@@H]2C[C@H](N3C[C@H]4C[C@@H]3CO4)C[C@@H]21` [compound 55, 5-(5-((1R,3r,5S,6R)-3-((1R,4R)-2-oxa-5-azabicyclo[2.2.1]heptan-5-yl)bicyclo[3.1.0]hexan-6-yl)-1-isopropyl-1H-pyrazol-3-yl)-3-(trifluoromethyl)pyridin-2-amine]: 5.4 nM.
To `CC(C)n1nc(-c2cnc(N)c(OC(F)(F)F)c2)cc1[C@H]1[C@@H]2C[C@H](N3CCO[C@@H](C)C3)C[C@@H]21` [compound 109, 5-(1-isopropyl-5-((1R,3r,5S,6S)-3-((S)-2-methylmorpholino)bicyclo[3.1.0]hexan-6-yl)-1H-pyrazol-3-yl)-3-(trifluoromethoxy) pyridin-2-amine] belongs 1.59 nM.
In the case of `CC(C)n1nc(-c2cnc(N)c(OC(F)(F)F)c2)cc1[C@H]1[C@@H]2C[C@H](N3CCNCC3)C[C@@H]21` [compound 244, 5-(1-isopropyl-5-((1R,3r,5S,6r)-3-(piperazin-1-yl)bicyclo[3.1.0]hexan-6-yl)-1H-pyrazol-3-yl)-3 - (trifluoromethoxy)pyridin-2-amine], the Ki stood at 1.1 nM.
Regarding `CC(C)n1nc(-c2cnc(N)c(OC(F)F)c2)cc1[C@H]1[C@@H]2C[C@H](N3CCOCC3)C[C@@H]21` [compound 86, 3-(difluoromethoxy)-5-(1-isopropyl-5-((1R,3r,5S,6r)-3-morpholino-bicyclo[3.1.0]hexan-6-yl)-1H-pyrazol-3-yl)pyridin-2-amine], the affinity corresponds to a Ki of 1.6 nM.
`CC(C)n1nc(-c2cnc(N)c(OC(F)F)c2)cc1[C@H]1[C@@H]2C[C@@H](N3C[C@@H]4C[C@H]3CN4C)C[C@@H]21` [compound 206, 3-(difluoromethoxy)-5-(1-isopropyl-5-((1R,3s,5S,6S)-3-((1S,4S)-5-methyl-2,5-diazabicyclo [2.2.1]heptan-2-yl)bicyclo[3.1.0]hexan-6-yl)-1H-pyrazol-3-yl) pyridin-2-amine] registered a Ki of 2.1 nM.
For the compound `CC(C)n1nc(-c2cnc(N)c(C(F)(F)F)c2)cc1[C@H]1[C@@H]2C[C@@H](n3cccn3)C[C@@H]21` [compound 110, 5-(5-((1R,3s,5S,6r)-3-(1H-pyrazol-1-yl)bicyclo[3.1.0]hexan-6-yl)-1-isopropyl-1H-pyrazol-3-yl)-3-(trifluoromethyl)pyridin-2-amine], the affinity corresponds to a Ki of 3.89 nM.
For the compound `CC(C)n1nc(-c2cnc(N)c(OC(F)F)c2)cc1[C@H]1[C@@H]2C[C@H](N3C[C@@H]4C[C@H]3CO4)C[C@@H]21` [compound 83, 5-(5-((1R,3r,5S,6S)-3-((1S,4S)-2-oxa-5-azabicyclo[2.2.1]heptan-5-yl)bicyclo[3.1.0]hexan-6-yl)-1-isopropyl-1H-pyrazol-3-yl)-3-(difluoromethoxy)pyridin-2-amine], affinity was put at a Ki of 0.12 nM.
As for `CC(C)n1nc(-c2cnc(N)c(C(F)(F)F)c2)cc1[C@H]1[C@@H]2C[C@@H](O)C[C@@H]21` [compound 5, (1R,3s,5S,6r)-6-(3-(6-amino-5-(trifluoromethyl)pyridin-3-yl)-1-isopropyl-1H-pyrazol-5-yl) bicyclo[3.1.0]hexan-3-ol], the Ki turned out to be 18.8 nM.
To `CC(C)n1nc(-c2cnc(N)c(OC(F)(F)F)c2)cc1[C@H]1[C@@H]2C[C@H](NCC(F)F)C[C@@H]21` [compound 282, 5-(5-((1R,3r,5S,6r)-3-((2,2-difluoroethyl)amino)bicyclo[3.1.0]hexan-6-yl)-1-isopropyl-1H-pyrazol-3-yl)-3-(trifluoromethoxy) pyridin-2-amine] belongs 7.7 nM.
The same measure for `CC(C)n1nc(-c2cnc(N)c(C(F)(F)F)c2)cc1[C@H]1[C@@H]2C[C@H](N3CC(F)C3)C[C@@H]21` [compound 36, 5-(5-((1R,3r,5S,6r)-3-(3-fluoro-azetidin-1-yl)bicyclo[3.1.0]hexan-6-yl)-1-isopropyl-1H-pyrazol-3-yl)-3-(trifluoromethyl)pyridin-2-amine]: 1.53 nM.

What is called Ki is a measure of affinity in units of concentration, obtained from inhibition or displacement.
